Results from patent US20080311589A1, “METHOD OF HIGH-THROUGHPUT SCREENING OF MOLECULES AND COMPOUNDS FOR THEIR EFFECTS ON BIOLOGICAL AND CHEMICAL PROCESSES” (priority 1999, published 2008).
“Also recorded” adds a separate entry of the source. Where two headings read alike, the source gives them in different places.

What was measured:
[1] = system: transiently transfected TGFβ-responsive reporter; assay: transient transfection luciferase assay, p3TPLux; assay type: cell-based, mink
Experimental: (§1) LUCIFERASE ASSAYS: Our transient transfection luciferase assay was described previously by us (Stockwell et al., Chem Biol 5:385, 1998). Briefly, 100,000 Mv1Lu mink lung epithelial cells were transiently transfected in 12-well dishes with 400 ng p3TPLux or pNFkB-Lux, with or without 50 ng pFC-MEKK, in 300 μL minimal essential medium with non-essential amino acids. The DEAE-dextran/chloroquine/DMSO methods was used for transfection (Stockwell et al., Chem Biol 6:71, 1999). After cell lysis in 120 μL lysis buffer, a Beckman LS 6500 liquid scintillation counter was used in single photon mode to quantitate luminescence. For detection of luciferase activity in 6F cells (including the primary screen), 20,000 6F cells were seeded in 50 μL of 10% mink medium in each well of a white 384-well plate (Nalge Nune International; Naperville, Ill.; cat#164610) using a Multidrop 384 liquid dispenser (Lab Systems; Helsinki, Finland). After 16 hours, medium was removed using a 24 channel wand (V&P Scientific, Inc.; San Diego, Calif.; cat#VP 186L), the cells were washed with 75 μL of 0.2% mink medium (containing 0.2% FBS), and reagents were added in 40 μL of 0.2% medium. For the primary screen, reagents were added by pin transfer using 384 polypropylene pin arrays (Matrix Technologies; Hudson, N.H.). After 24 hours, the cells were cooled on ice and washed twice with 75 μL Hanks Balanced Salt Solution (HBSS; GibcoBRL; cat#24020-117). Then 20 μL lysis buffer (25 mM glycylglycine (Sigma; cat#E-0396), 1% Triton X-100 (Sigma; cat#T-9284), 1 mM dithiothreitol (DTT; Sigma; cat#D-5545), 1 mM phenylmethylsulfonyl fluoride (PMSF; Sigma; cat#P-7626)) was added to each well with a Multidrop. After incubating the cells for five minutes on ice, 20 μL of ATP/luciferin solution was added (25 mM glycylglycine pH 7.8, 15 mM MgSO4, 4 mM EGTA, 6.25 mM K2HPO4 (Sigma; cat#P5504) pH 7.8, 5 mM DTT, 75 μM D-luciferin (Sigma, cat# L-9504, 2 mM ATP (Sigma; cat#A-7699)). Light output was immediately measured with an Analyst 384-well platereader (LJL), with 0.5 second counting time per well.

[2] = system: control reporter responsive to NFκB; conditions: transiently transfected
Experimental: as §1, with “After 16 hours, medium was removed using a 24 channel wand (V&P Scientific, Inc.; San Diego, Calif.; cat#VP 186L), the cells were washed with 75 μL of 0.2% mink medium (containing 0.2% FBS), and reagents were added in 40 μL of 0.2% medium. For the primary screen, reagents were added by pin transfer using 384 polypropylene pin arrays (Matrix Technologies; Hudson, N.H.). After 24 hours, the cells were cooled on ice and washed twice with 75 μL Hanks Balanced Salt Solution (HBSS; GibcoBRL; cat#24020-117). Then 20 μL lysis buffer (25 mM glycylglycine (Sigma; cat#E-0396), 1% Triton X-100 (Sigma; cat#T-9284), 1 mM dithiothreitol (DTT; Sigma; cat#D-5545), 1 mM phenylmethylsulfonyl fluoride (PMSF; Sigma; cat#P-7626)) was added to each well with a Multidrop.” left out

[3] = system: microtubules; assay: competition with fluorescently labeled taxol; assay type: binding; conditions: oregon green labeled taxol, fluorescence polarization
Source text: (§2) Since taxol and discodermolide prevent cold depolymerization of microtubules (Hung et al., Chem. Biol. 3:287, 1996), we tested whether synstab A-treatment of cells would cause a similar effect. […] This mutually exclusive binding is consistent with the observed taxol-like effects of synstab A on cells and on purified microtubules.
Three different assays were used to confirm microtubule-stabilizing effects in the in vitro tubulin polymerization assay by repeating the above experiment. In addition, three independent experiment assessments were carried out. 1) In vitro competition experiments with fluorescence-labeled taxol. […] 2) In vivo incubation of BSCI-cells (a monkey epithelial cell line) with 40 μM 1A for four hours. In brief, BSCI cells were seeded on glass coverslips and cultured overnight. […] 3) treatment of cells with 1A resulted index by the phosphonucleolin (TG-3) cytoblot as described above as measured visually.

[4] = UV spectral shift binding assay with 1a; conditions: UV 240-310 nm
Experimental: (§3) UV SPECTRAL SHIFT BINDING ASSAY: A quartz cuvette with 1 mL deionized, distilled water was used as a blank on a Cary 1E UV-visible spectrophotomer. 1a or 2 was diluted to a final concentration of 15 μM or 20 μM, respectively, and the UV spectrum from 240 nm to 320 nm was measured. […] Upon addition of certain transition metals (Table 1), this peak shifted such that the new λmax was 273 nm and 310 nm, for 1a and 2, respectively. […] For the calculation of correlation coefficients, all values less than 7.5 μM were taken to be 7.5 μM, all values greater than 1000 μM were taken to be 1000 μm and all values less than 10 μM were taken to be 10 μM.

[5] = system: p3TPLux TGFβ-responsive reporter in 6F mink lung cells; assay: luciferase assay, stably transfected p3TPLux; assay type: cell-based; conditions: for synergy with TGFβ: 400 pM TGFβ1; for reporter gene expression: stably transfected reporter
Experimental: FIG. 19 graphs the dose-response of transcriptional activation of compounds 1a and 2 in the presence (*) or absence (•) of 400 pM TGFβ1. 20,000 6F mink lung cells ( ) were seeded in 384 well plates, allowed to attach for 16 hours in 10% mink medium, and were treated with the indicated concentrations of 1a or 2.
We screened more than 16,000 chemical compounds to identify those that specifically activated expression of a reporter gene (luciferase) under the control of TGFβ-responsive elements in stably transfected mammalian cells (mink lung epithelial cells). […] Given the structural similarity of compounds 1a-c, we expected that all three were operating through a common mechanism. We therefore continued testing on only one, compound 1a, as representative of the group.

[6] = system: mink lung epithelial cells; assay: BrdU cytoblot assay for S-phase progression; assay type: cell-based
Source text: BRDU CYTOBLOT ASSAY: The BrdU cytoblot assay for S-phase progression was described previously by Stockwell et al. (Chem. Biol. 6:71, 1999; see also, U.S. Patent Application Ser. No. 60/094,305, incorporated herein by reference).
Compounds that mimic TGFβ activity would be expected to be capable of inducing cell cycle arrest or apoptosis, and in particular to block DNA replication, in responding cells. We therefore used an S-phase progression cytoblot assay to test whether our compounds could inhibit 5-bromodeoxyuridine (BrdU) incorporation into mink epithelial cells. […] Both compounds were therefore classified as true TGFβ mimics.

[7] = system: BS-C-1 cells; assay: fluorescence microscopy and live imaging of BS-C-1 cells; assay type: cell-based, monkey; conditions: BS-C-1 cells; 1A at 40 μM for 4 hours
Source text: We investigated the phenotype of mammalian cells (BS-C-I) treated with the compounds of group III. […] Our examination of the distribution of microtubules, actin, and chromatin in fixed cells by fluorescence microscopy allowed us to divide the small molecules into three classes.
We then asked whether the chromosomes surrounding the monoastral microtubule array maintain microtubule attachment.

[8] = system: S. cerevisiae strain BY4741
Experimental: TRANSCRIPTIONAL PROFILING: We performed transcriptional profiling on yeast cells according to known techniques. […] We therefore set thresholds of 0.5 fold and 2.0 fold for transcriptional repression and transcriptional activation, respectively, in our experimental comparisons of untreated cells and cells treated with test compounds.
Briefly, S. cerevisiae strain BY4741 (haploid) was streaked on a YPD plate, grown for 3 days at 30° C., and used to inoculate a 50 mL overnight culture of YPD. This culture was diluted into pre-warmed YPD such that A600=0.04 and allowed to grow until A600=0.47. The culture was split into pre-warmed flasks, with 50 mL in each of three flasks and 150 mL in a fourth flask. […] The cultures were centrifuged at 2500 g at room temperature for five minutes and the pelle frozen in liquid nitrogen. Total RNA was purified from each culture by hot acidic phenol/chloroform extraction and ethanol precipitation. Poly-A RNA wad purified with a Qiagen Oligotex mRNA Midi Kit (Qiagen; Valencia, Calif.; cat#70042). Fluorescently-labeled probe was prepared from […] poly-A mRNA and applied to glass slides that had been printed with 6240 yeast ORFs (James Hardwick, Jeffrey Tong, and Stuart L. Schreiber, unpublished results). The microarray was scanned with an Array Works scanner and the results were analyzed with Gene Spring software.

[9] = UV spectral shift binding assay with 2; conditions: UV 240-310 nm
Experimental: as §3

[10] = system: 6F mink lung epithelial cells; assay: anti-BrdU cytoblot for suppressors of rapamycin; assay type: cell-based
Source text: FIG. 9. […] A 4 mm scale bar is shown. […] A 4 mm scale bar is shown.

[11] = system: phosphonucleolin; assay: phosphonucleolin cytoblot, suppression of nocodazole-induced mitotic arrest; assay type: cell-based, human; conditions: A549 cells; pretreated 8 hour, then 250 nM nocodazole 12 hours
Experimental: FIG. 10. The ability of anti-proliferative agents such as juglone to suppress the effects of nocodazole-induced mitotic arrest can be detected in a cytoblot. […] (b) A549 human lung carcinoma cells were seeded at a density of 4000 cells in 40 μL of DMEM+ in each well of a white, opaque 384-well plate and incubated overnight at 37° C. with 5% CO2. Cells were either untreated or pretreated with juglone at the indicated concentrations for 8 hour. Subsequently, nocodazole at a final concentration of 250 nM was added to all wells in a final volume of 50 μL and the cells incubated for a further 12 hours. A phosphonucleolin cytoblot was performed. […] A 4 mm scale bar is shown.
The treatment of cells with any small molecule that arrests cells outside of mitosis will suppress the ability of nocodazole to arrest cells in mitosis. […] It was hypothesized that inhibition of Pin1, which is an essential, highly conserved PPIase required for proper mitotic division in Xenopus and yeast, would prevent entry into mitosis and consequently prevent accumulation of phosphonucleolin (FIG. 10a).

[12] = system: TG-3 staining; assay: fluorescence-activated cell sorting and TG-3 immunoblotting; assay type: cell-based; conditions: concentrations that do not affect viability
[13] = system: microtubules; assay: cold depolymerization of microtubules in cells; assay type: cell-based; conditions: 4° C., 0.5 h, taxol 10 μM, 4 h, synstab A 25 μM
Source text: as §2

SMILES: CN(c1ccc2cccc(O)c2n1)c1ccc2cccc(O)c2n1 [Compound 1a, 2,2′-(methylimino)bis-8(quinolinol)]
- activation of transiently versus stably transfected TGFβ-responsive reporter [1]: less effective
- activation of NFκB-responsive control reporter [2]: Neither compound activated
- competition for binding of fluorescently labeled taxol [3]: compete off bound labeled taxol
- binding of 1a to metals (shift in UV absorbance maximum) [4]: binds strongly to Zn^2+, Fe^2+, Cu^2+, Cu^+, and Al^3+, and less well to Mn^2+, Co^2+, and Ni^2+
- synergy with TGFβ [5]: synergistic with TGFβ
- reporter gene expression [5]: dose-dependent increase in reporter gene expression
- BrdU incorporation [6]: inhibited BrdU incorporation; also recorded: inhibition of BrdU incorporation
- microtubule, spindle and chromosome phenotype [7]: showed bundling of interphasic microtubules and aberrant mitotic spindles with misaligned chromosomes
- […] IN PRESENCE OF COMPOUND […] IN ABSENCE OF COMPOUND ([8]; gene YAL045C (ARN1), Multi-drug resistance pump, repressed genes): 0.49
- […] IN PRESENCE OF COMPOUND […] IN ABSENCE OF COMPOUND ([8]; gene YBL005WA, TyA transposon, activated genes): 2.2
- […] IN PRESENCE OF COMPOUND […] IN ABSENCE OF COMPOUND ([8]; gene YHL040C (ARN1), multidrug resistance pump, activated genes): 2.0

SMILES: O=C(NN=Cc1ccccc1O)c1ccc(O)cc1 [Compound 2, Benzoic acid, 4-hydroxy, [(2-hydroxyphenyl)methylene]hydrazide]
- activation of transiently versus stably transfected TGFβ-responsive reporter [1]: less effective
- activation of NFκB-responsive control reporter [2]: Neither compound activated
- binding of 2 to metals (shift in UV absorbance maximum) [9]: binds well to Fe^3+, Cu^2+, Cu^+, and CO^2+, and also shows some binding to Ni^2+
- synergy with metals in reporter activation [5]: synergized strongly with both Cu^+ and Cu^2+ but not with other metals
- synergy with TGFβ [5]: synergistic with TGFβ
- activity in screen (TGFβ-responsive luciferase reporter) ([5]; primary screen of more than 16,000 compounds): showed activity in our screen
- reporter gene expression [5]: dose-dependent increase in reporter gene expression
- BrdU incorporation [6]: inhibited BrdU incorporation; also recorded: inhibition of BrdU incorporation
- effect on gene expression in yeast cells [8]: no detectable effect on gene expression in yeast cells

SMILES: C=CC[C@@H]1/C=C(\C)C[C@H](C)C[C@H](OC)[C@H]2O[C@@](O)(C(=O)C(=O)N3CCCC[C@H]3C(=O)O[C@H](/C(C)=C/[C@@H]3CC[C@@H](O)[C@H](OC)C3)[C@H](C)[C@@H](O)CC1=O)[C@H](C)C[C@@H]2OC [FK506]
- excess of FK506 that suppresses the antiproliferative effect of rapamycin ([10]; rapamycin and FK506 together 16 hours, then with BrdU 16 hours): 30-100 fold

SMILES: O=C1C=CC(=O)c2c(O)cccc21 [juglone]
- concentrations that prevent accumulation of phosphonucleolin [11]: greater than 25 microM

SMILES: CO[C@H]1C[C@@H]2CC[C@@H](C)[C@@](O)(O2)C(=O)C(=O)N2CCCC[C@H]2C(=O)O[C@H]([C@H](C)C[C@@H]2CC[C@@H](O)[C@H](OC)C2)CC(=O)[C@H](C)/C=C(\C)[C@@H](O)[C@@H](OC)C(=O)[C@H](C)C[C@H](C)/C=C/C=C/C=C/1C [rapamycin]
- concentration that prevents BrdU incorporation ([10]; 6F mink lung cells): 20 nM

SMILES: CC(=O)O[C@H]1C(=O)[C@@]2(C)[C@H]([C@H](OC(=O)c3ccccc3)[C@]3(O)C[C@H](OC(=O)[C@H](O)[C@@H](NC(=O)c4ccccc4)c4ccccc4)C(C)=C1C3(C)C)[C@]1(OC(C)=O)CO[C@@H]1C[C@@H]2O [taxol]
- TG-3 reactivity of total cell extracts [12]: increased TG-3 reactivity
- protection from cold depolymerization [13]: noticeably stabilized microtubules
- microtubule, spindle and chromosome phenotype [7]: less pronounced than that induced by synstab A
